Measurements taken from patent US12612408B2, “Pyrazolone-fused pyrimidine compound, preparation method for same and applications thereof” (SHANGHAI PHARMACEUTICALS HOLDING CO., LTD., priority 2019, dated 2026).

Assays:
[1] = Bioavailability test in vivo in mice (pharmacokinetics, iv and intragastric); design: species or system ICR mice
Description: 404.6 μL of DMSO was added to the compound powder of the present disclosure until the compound was completely dissolved, and 50 mg/mL mother liquor was prepared in a clarified state.
The compound of the present disclosure: 24 μL of mother liquor was accurately measured, diluted to 4 mL according to the ratio of 0.9% normal saline:PEG400=8:2, the preparation concentration was 0.3 mg/mL, the solution was in a clarified state, and it was used as intravenous administration solution. In addition, 80 μL mother liquor was accurately measured, and 0.5% CMC-Na was added to 8 mL to grind it into a uniform suspension with a concentration of 0.5 mg/mL, which was used as intragastric administration solution.
(§1) Intravenous group: 24 ICR mice, 20±2 g, were given the intravenous administration solution of the compound of the present disclosure by intravenous injection, with the volume of 10 mL/kg, with the dose of 3 mg/kg, the blood was taken from the fundus venous plexus of mice, 2, 5, 15, 30, 60, 90, 120, 240, 360, 480, 600 and 1440 minutes before and after administration.
as §1, with “Intragastric group:” for “Intravenous group:”, “the intragastric” for “the intravenous”, “by intragastric” for “by intravenous”, “of 20” for “of 10”, “of 10” for “of 3”, “mice,” for “mice, 2,”
Blood sample was centrifuged at 8000 rpm for 5 min, and the plasma was stored in a centrifuge tube at −20° C. for later use.
300 μL of acetonitrile containing internal standard (Propranolol, 25 ng/mL) was added to 50 μL of plasma samples to precipitate protein, vortexed for 10 min, 6000 g, 4° C., centrifuged for 10 min; the supernatant before intravenous injection for 1 hour was taken, diluted 10 times with acetonitrile containing internal standard, the rest supernatant was kept undiluted, centrifuged for 10 min again at 6000 g, 4° C., and the supernatant was taken and then injected into a 96-well plate.
(§2) Dose; peak concentration: Cmax; peak time: Tmax; area under the drug-time curve from AUClast 0 to time t; half-life: T1/2; mean retention time: MRT; clearance: Cl; apparent distribution volume: Vz; steady-state distributed volume: Vss; absolute bioavailability: F.
The pharmacokinetic parameters of the compound in mice after intravenous injection or intragastric administration were shown in Table 4 and Table 5 below.

[2] = Bioavailability test in vivo in cynomolgus monkey (pharmacokinetics, IV and PO); conditions: cynomolgus monkeys
Description: Twelve male Non-Naïve cynomolgus monkeys were purchased from GuangxiGuidong Primate Development Experiment Co. LTD.
(§3) 54.31 mg of I-8-1 was accurately weighed, and 1.08 mL of DMSO was added, then the mixture was vortexed for 1 min, sonicated for 15 min, and then diluted to 36 mL according to the ratio of 10% HP-β-cyclodextrin (prepared by normal saline): PEG=8:2, vortexed for 1 min. A colorless clarified administration solution (the pH value was about 7) at a concentration of 1.5 mg/mL was prepared for intravenous administration to Group 1.
300.9 mg of I-8-1 was accurately weighed, and 75 mL of 0.5% CMC-Na was added, the mixture was fully ground and stirred for 5 min. A white suspension (the pH value was about 7) at a concentration of 4 mg/mL was prepared for oral administration to Group 2.
as §3, with “54.05 mg” for “54.31 mg”, “of AZD1775” for “of I-8-1”, “then he” for “then the”, “of 10%-D-cyclodextrin” for “of 10% HP-β-cyclodextrin”, “A yellow” for “A colorless”, “Group 3.” for “Group 1.”
300.7 mg of AZD1775 was accurately weighed, and 75 mL of 0.5% CMC-Na was added, the mixture was fully ground and stirred for 5 min. A yellow suspension (the pH value was about 7) at a concentration of 4 mg/mL was prepared for oral administration to Group 4.
Before administration, all animals were fasted overnight (approximately 12 hours) and fed as required and administered according to the table below.
Intravenous group: before administration (0 h), 0.033 h, 0.083 h, 0.25 h, 0.5 h, 1 h, 1.5 h, 2 h, 4 h, 6 h, 8 h, 12 h, 24 h after administration.
Oral group: before administration (0 h), 0.083 h, 0.25 h, 0.5 h, […], 2 h, 4 h, 6 h, 8 h, 12 h, 24 h after administration.
Blood samples were collected by puncture through lower limb vein or other suitable blood vessels at 1 mL/time point (3 mL of blood samples were collected from each animal before administration), anticoagulated with heparin sodium, and placed on ice after collection. Plasma was separated at 2200 g/min, 10 min, 2-8° C., plasma samples were stored in a −80° C. refrigerator before being transferred to the client. Plasma samples are stored in dry ice and transferred to the client. The final treatment of the sample will be recorded in the experimental record.
300 μL of acetonitrile was added to 50 μL of plasma samples containing internal standard (Propranolol, 25 ng/mL) to precipitate protein, vortexed for 10 min, centrifuged at 6000 g for 10 min, after I-8-1&AZD1775 intravenous injection group was diluted 10 times with internal standard acetonitrile (Propranolol, 25 ng/mL) at the time point before 1 hour, the remaining supernatant was not diluted, centrifuged again at 6000 g at 4° C. for 10 min, and the supernatant was taken and injected into a 96 well plate.
as §2
The pharmacokinetic parameters of the compound in cynomolgus monkeys after intravenous injection or intragastric administration were shown in Table 6 below.

[3] = ICR, mouse, plasma, iv, 3 mg/kg
[4] = ICR, mouse, plasma, po (intragastric), 10 mg/kg
[5] = male, cynomolgus monkey, plasma, iv, 3 mg/kg
[6] = male, cynomolgus monkey, plasma, po, 20 mg/kg, fasted

Work on `C=CCn1c(=O)c2cnc(Nc3ccc(C4CCC(N5CCC5)CC4)cc3)nc2n1-c1cccc(C(C)(C)O)n1` (single isomer, unassigned) [Compound I-8-1] yielded a Cmax [1, 3] of 644 ± 132 ng/mL, an MRT [1, 3] of 1.11 ± 0.08 h and a Tmax [1, 3] of 0.03 h. It also gave a clearance [1, 3] of 155 mL/min/kg, a half-life [1, 3] of 1.22 ± 0.1 h and a Vd ([1]; ICR, mouse, plasma, iv, 3 mg/kg, iv, 3 mg/kg, read-out: Vss) of 10.3 ± 0.86 L/kg. It also gave a Vd ([1]; ICR, mouse, plasma, iv, 3 mg/kg, iv, 3 mg/kg, read-out: Vz) of 16.3 ± 2.48 L/kg, a bioavailability ([1]; ICR, mouse, plasma, po 10 mg/kg vs iv 3 mg/kg, read-out: F (absolute bioavailability)) of 60.3% and a Cmax [1, 4] of 58.1 ± 7.09 ng/mL. It also gave an MRT [1, 4] of 3.47 ± 1.22 h, a Tmax [1, 4] of 1.67 ± 0.29 h and a half-life [1, 4] of 1.57 ± 0.39 h. The AUClast ([1]; iv, 3 mg/kg) was 317.5 ± 34.41 (h) (ng/mL), the AUClast ([1]; po (intragastric), 10 mg/kg) was 637.9 ± 302.3 (h) (ng/mL) and the AUCextra ([2]; iv, 3 mg/kg) was 16.11 ± 9.34 (h)*(ng/mL). For the same compound, the AUClast ([2]; iv, 3 mg/kg) was 957.6 ± 126.3 (h)*(ng/mL), the AUCtot ([2]; iv, 3 mg/kg) was 973.8 ± 131.4 (h)*(ng/mL) and the thalf ([2]; iv, 3 mg/kg) was 2.05 ± 1.24 h. The AUCextra ([2]; po, 20 mg/kg, fasted) was 187.03 ± 166.00 (h)*(ng/mL), the AUClast ([2]; po, 20 mg/kg, fasted) was 6548 ± 3043 (h)*(ng/mL) and the AUCtot ([2]; po, 20 mg/kg, fasted) was 6735 ± 3201 (h)*(ng/mL). The thalf ([2]; po, 20 mg/kg, fasted) was 3.71 ± 0.72 h, the Vd ([2]; male, cynomolgus monkey, plasma, iv, 3 mg/kg, iv, 3 mg/kg, read-out: Vss) was 9.67 ± 1.32 L/kg and the Vd ([2]; male, cynomolgus monkey, plasma, iv, 3 mg/kg, iv, 3 mg/kg, read-out: Vz) was 8.78 ± 4.22 L/kg. It also gave a Cmax [2, 5] of 838 ± 190 ng/mL, an MRT [2, 5] of 3.17 ± 0.82 h and a Tmax [2, 5] of 0.03 h. For the same compound, the clearance [2, 5] was 52 mL/min/kg, the bioavailability ([2]; male, cynomolgus monkey, plasma, po 20 mg/kg vs iv 3 mg/kg, read-out: BA (absolute bioavailability)) was 103% and the Cmax [2, 6] was 721 ± 260 ng/mL. The MRT [2, 6] was 7.91 ± 2 h and the Tmax [2, 6] was 4.5 ± 2.6 h.
